Experimental data from paper PMC12291851, “Hydrogen Sulfide (H2S)-Donating Formyl Peptide Receptor 2 (FPR2) Agonists: Design, Synthesis, and Biological Evaluation in Primary Mouse Microglia Culture” (Antioxidants, 2025).

How the values were obtained:
[1] = system: mouse primary microglial cells; assay: NO release assay (Griess) in primary microglial cells; format: cell-based; conditions: for LPS-induced NO production: 1 μM pretreatment 1 h, then LPS 0.1 μg/mL 24 h; for NO levels under basal conditions: 1 μM, no LPS
Description: Primary microglial cell cultures were derived from the cortices of 1–2-day-old mouse pups (1pup/1 brain/1 flask). After decapitation, the brains were extracted and immediately placed in cold Hanks’ Balanced Salt Solution (HBSS, Gibco, New York, NY, USA) on ice. The brains were washed at least three times with 7 mL of HBSS and then transferred to 10 mL of fresh culture media consisting of Dulbecco’s Modified Eagle Medium (DMEM) with GlutaMax and high glucose (4.5 g/L) (Gibco, New York, NY, USA) on ice. The tissue was minced and incubated in HBSS containing glucose, bovine serum albumin (BSA; Sigma-Aldrich, St. Louis, MO, USA), and HEPES (Gibco, New York, NY, USA) with 0.025% trypsin at 37 °C for 20 min. The trypsinization was halted by adding DMEM with GlutaMax and high glucose (4.5 g/L) supplemented with 10% heat-inactivated fetal bovine serum (FBS, Gibco, New York, NY, USA). The tissue was then gently triturated to obtain a single-cell suspension. Cells were plated at a density of 3 × 10^5 cells/cm^2 in culture medium composed of DMEM with GlutaMax and high glucose (4.5 g/L), supplemented with 10% heat-inactivated FBS, 100 U/mL penicillin, and 0.1 mg/mL streptomycin (all from Gibco, New York, NY, USA), in poly-L-lysine-coated 75 cm^2 culture flasks. On the ninth day in vitro (maintained at 37 °C, 5% CO2), the flasks were agitated on a horizontal shaker for 1 h at 37 °C and 80 rpm. Following centrifugation, the cells were resuspended in culture medium and seeded at final densities of 1.25 × 10^6 cells/well in 6-well plates, 2 × 10^5 cells/well in 24-well plates, or 4 × 10^4 cells/well in 96-well plates. The purity of microglial cell cultures was assessed as we have shown previously.
Microglia cell cultures were pretreated with the FPR2 agonists 8b (1 µM) or 7b (1 µM) for 1 h and then stimulated with lipopolysaccharide (LPS; 0.1 μg/mL; Escherichia coli 0111:B4; Sigma-Aldrich, St. Louis, MO, USA) for 24 h. The concentration of 1 μM was chosen based on our preliminary data (Supplementary File). Control cultures were treated with the appropriate vehicle. […]
NO (nitrite ion in solution) production from LPS-treated microglial cells was measured using the Griess reaction, as previously described by. After 24 h of treatment, equal volumes of cell culture medium and Griess reagents (Griess A: 0.1% N-1-naphthylethylenediamine dihydrochloride and Griess B: 1% sulfanilamide in 5% phosphoric acid) were combined in a 96-well plate and the absorbance was read at 540 nm using an Infinite M200PRO microplate reader (TECAN, Männedorf, Switzerland). The results were normalized to the NO levels released by vehicle-treated cells (set at 100%) and expressed as a percentage of the control ± SD.

[2] = Cell-free MTT-based H2S release assay; format: physicochemical; conditions: 24 h incubation in MEM with 10% DMSO
Description: Solutions at different concentrations of each compound in 100 µL of serum-free MEM/10% DMSO with 0.5 mg/mL 3-(4,5-dimethylthiazol-2yl)-2,5-diphenyltetrazolium bromide (MTT) were incubated for 5 h or 24 h in a humidified incubator at 37 °C in 5% CO2 atmosphere. The experimental design comprised blank wells containing only medium and MTT, and a H2S calibration curve obtained by incubating nine solutions at decreasing concentrations (100 µM to 0.01 µM) of NaHS in medium and MTT. At the end of incubation time, the supernatant was removed, the […] crystals were dissolved in 100 µL DMSO/EtOH (1:1 v/v), and absorbance values were read using a Victor 3 plate reader (PerkinElmer, Shelton, CT, USA) at 570 nm. H2S values are expressed as mean ± S.E.M. of the results of three independent experiments conducted in triplicate, and were plotted using GraphPad Prism 7.
To decipher such results and considering the redox properties of H2S, we questioned if H2S released by our compounds in the culture media could interfere with the conversion of MTT (3-[4,5-dimethylthiazol-2-yl]-2,5-diphenyl tetrazolium bromide) to formazan, which is usually related to cell viability. Thus, we ran cell-free experiments in which MTT was used as the substrate to capture the reductive action of H2S. We found, in agreement with Gerő et al., that some of our thioureas and thioamides reduced MTT to formazan after 24 h incubation in MEM with 10% DMSO.

[3] = Cell-free H2S release fluorescence assay with probe 9 (7-azido-4-methylcoumarin); format: physicochemical; conditions: PBS/DMSO 10%, 37 °C, probe 9 100 μM
Description: The H2S release fluorescence assay was carried out in a final volume of 100 μL PBS/DMSO 10% in black 96-well plates. Solutions with decreasing concentrations of each tested compound were prepared in PBS/DMSO 10%. Then, 50 μL of each solution was dispensed in triplicate in each well. Starting from a 10 mM stock solution, a 200 μM solution of probe 9 was prepared and stored in the dark until 50 μL was dispensed in each well. Blank wells containing only the probe at 100 μM in 100 μL of PBS/DMSO 10% are also prepared. A H2S calibration curve was obtained by incubating solutions of NaSH with the probe under the same conditions, although a different plate was used to minimize interferences due to the diffusion of rapidly released H2S. After 24 h and 48 h incubation in a humidified incubator at 37 °C, 5% CO2, fluorescence reads are obtained from each well with a plate reader TECAN M1000 Pro (Tecan, Männedorf, Switzerland), at λex = 350 nm and λem = 440 nm. Each experiment was replicated at least three times. The data were processed using Microsoft Excel (Microsoft, Redmond, WA, USA) and GraphPad Prism 7 (GraphPad Software, La Jolla, CA, USA).
Compound 9 is a turn-on fluorescent probe that features an azido moiety which can be reduced to amine by H2S, leading to the formation of the fluorescent derivative 7-amino-4-methylcoumarin 10 (λex = 350 nm and λem = 440 nm, Scheme 2). We included NaHS in the assay as a positive control and 3a as a negative control.

[4] = system: mouse primary microglial cells; assay: LDH release assay in primary microglial cells; format: cell-based; conditions: 1 μM pretreatment 1 h, then LPS 0.1 μg/mL 24 h
Description: Primary microglial cell cultures were derived from the cortices of 1–2-day-old mouse pups (1pup/1 brain/1 flask). After decapitation, the brains were extracted and immediately placed in cold Hanks’ Balanced Salt Solution (HBSS, Gibco, New York, NY, USA) on ice. The brains were washed at least three times with 7 mL of HBSS and then transferred to 10 mL of fresh culture media consisting of Dulbecco’s Modified Eagle Medium (DMEM) with GlutaMax and high glucose (4.5 g/L) (Gibco, New York, NY, USA) on ice. The tissue was minced and incubated in HBSS containing glucose, bovine serum albumin (BSA; Sigma-Aldrich, St. Louis, MO, USA), and HEPES (Gibco, New York, NY, USA) with 0.025% trypsin at 37 °C for 20 min. The trypsinization was halted by adding DMEM with GlutaMax and high glucose (4.5 g/L) supplemented with 10% heat-inactivated fetal bovine serum (FBS, Gibco, New York, NY, USA). […] The purity of microglial cell cultures was assessed as we have shown previously. […]
LDH release was measured as previously described by as an estimation of cell damage 24 h after LPS treatment. […] Absorbance was measured at 540 nm using an Infinite M200PRO microplate reader (TECAN, Männedorf, Switzerland). The results were normalized to the LDH activity released from vehicle-treated cells (considered as 100%) and expressed as a percentage of the control ± SD.

Compound | LPS-induced NO production [1] | NO levels under basal conditions [1] | absorbance signal (MTT reduction to formazan) indicative of H2S release [2] | H2S release detected with probe 9 in aqueous media ([3]; 24 h incubation) | H2S release detected with probe 9 in aqueous media ([3]; 48 h incubation) | LPS-induced cytotoxicity (LDH release) [4]
N#Cc1ccc(C[C@H](NC(=O)Nc2ccc(F)cc2)C(=S)N2CCc3ccccc32)cc1 [7b, (S)-1-[3-(4-Cyanophenyl)-1-(indolin-1-yl)-1-thioxopropan-2-yl]-3-(4-fluorophenyl)urea] | effectively attenuated | neither compound increased NO levels | robust absorbance signal | detected H2S release | more intense | effectively mitigated
N#Cc1ccc(C[C@H](NC(=O)Nc2ccc(Br)cc2)C(=S)N2CCc3ccccc32)cc1 [8b, (S)-1-(4-Bromophenyl)-3-[3-(4-cyanophenyl)-1-(indolin-1-yl)-1-thioxopropan-2-yl]urea] | effectively attenuated | neither compound increased NO levels | below the assay’s detection limit |  | limited capability to release H2S | effectively mitigated
